Structures are written as SMILES. Calls of active or inactive are those of the source.

The values that follow come from ChEMBL document CHEMBL1201862, “PubChem BioAssay data set” (2004).

For assay [1], the target named is T1, Luciferin 4-monooxygenase (Photinus pyralis, UniProt P08659). Kind of assay: Counter Screen for Luciferase-based Assay Positives. [Related pubchem assays: 620, 618, 411 ].
The test system of assay [2] is HEK293. Kind of assay: PMA/Ionomycin induced NF-kB luciferase assay in 293- NF-kB-Luc stable cells. [Related pubchem assays: 1299, 1270, 1295, 1375, 1287, 1281, 1293, 1291, 1289, 1280, 465, 1364, 1282, 1372, 1365, 1370, 1367, 1366, 1269, 1373, 1292, 1290, 1302, 1371, 1283, 1271, 1294, 1374, 1368, 1369 ]. It is filed as functional, cell-based. The following applies: Homo sapiens.

Assay [3] concerns the target T1, Luciferin 4-monooxygenase. Briefly: In vitro luciferase assay using purified luciferase. [Related pubchem assays: 1299, 1270, 1295, 1375, 1287, 1281, 1293, 1291, 1289, 1280, 465, 1364, 1282, 1372, 1365, 1370, 1367, 1366, 1266, 1373, 1292, 1290, 1302, 1371, 1283, 1271, 1294, 1374, 1368, 1369 ].
In assay [4] the target is Glyceraldehyde-3-phosphate dehydrogenase (Homo sapiens, UniProt P04406).
In assay [5] the test system is HEK293. Briefly: PMA/Ionomycin-induced IL-8 production in HEK293- NF-kB-Luc stable cells. [Related pubchem assays: 1299, 1295, 1375, 1287, 1281, 1293, 1291, 1289, 1280, 465, 1364, 1282, 1372, 1365, 1367, 1366, 1266, 1269, 1373, 1292, 1290, 1302, 1371, 1283, 1271, 1294, 1374, 1368, 1369 ]. In kind it is functional, cell-based. The following applies: Homo sapiens.
A short description of assay [6]: Luminescence-based counterscreen assay for KLF5 inhibitors: dose response cell-based high throughput screening assay to identify cytotoxic compounds using the IEC-6 intestinal epithelial cell line. [Related pubchem assays: 1700 (Primary screen.), 1834 (Confirmation screen.), 1858 (Summary AID.), 1905 (Counterscreen.)]. It is filed as functional. (In general: The purpose of a counterscreen is to sort out artefacts and off-target activity.)

Another assay concerns HT-1080. Briefly: cytotoxicity in HT1080 fibrosarcoma cells, cell-based, fluorescence readout (AID 620). In kind it is functional. The following applies: Homo sapiens.
Assay [7] has as its system HEK293. Kind of assay: Cytotoxicity assay in HEK293 cells. [Related pubchem assays (depositor defined):AID1266, AID1269, AID1270, AID1271, AID1280, AID1281, AID1282, AID1283, AID1287, AID1289, AID1290, AID1291, AID1292, AID1293, AID1294, AID1295, AID1299, AID1302, AID1364, AID1365, AID1366, AID1367, AID1369, AID1370, AID1371, AID1372, AID1373, AID1374, AID1375, AID1384 …. In kind it is functional, cell-based. The following applies: Homo sapiens.

The subject of assay [8] is HEK293. Kind of assay: TNF Induced NF-kB Luciferase in 293-NF-kB-Luc Stable Cells. [Related pubchem assays: 1266, 1299, 1269, 1373, 1292, 1290, 1302, 1371, 1283, 1270, 1295, 1271, 1375, 1294, 1374, 1281, 1293, 1291, 1289, 1280, 465, 1368, 1364, 1282, 1372, 1365, 1369, 1370, 1367, 1366 ]. As to conditions: Homo sapiens. In kind it is functional, cell-based.
Assay [9] in a line: inhibitors of HIV Env-driven cell fusion, dose response, cherry-pick (AID 652057). In kind it is functional, cell-based.
Assay [10] is described as follows: ZM109 Env clade C HIV-1 fusion inhibitors, dose response, HeLa effector, CEM target cells, luciferase, cherry-pick (AID 652058). It is filed as functional, cell-based.
The nature of assay [11]: off-target signal loss in HeLa-CEM21 co-culture – HeLa F-luc CTL cells, cherry-picked, counter-screen for HIV-1 Env fusion inhibitor project, dose response (AID 652040).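 Also: potency for signal decrease marking cytotoxic or nonspecific inhibition.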 In kind it is functional, cell-based.
Assay [12] in a line: inhibitors of clade B AD8 Env fusion, dose response, cell-based, cherry-pick (AID 652062).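 Also: luciferase signal from cell-cell fusion driven by HIV-1 clade B AD8 Env; potency is for inhibitors of fusion seen as a drop in luminescence.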 It is filed as functional.
A further assay concerns the target Protein Tat (Human immunodeficiency virus type 1 group M subtype B (isolate HXB2)(HIV-1), UniProt P04608). It is filed as functional.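 Also: tat binding to TAR RNA read out by fluorescence polarization.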
The target in a further assay is Wee1-like protein kinase (Homo sapiens, UniProt P30291). Kind of assay: G2/M cell cycle arrest in HeLa, late-stage follow-up, mechanism study for Wee1 degradation inhibitor project, FACS, panel member Wee1 Degradation (AID 2088).
For assay [13], the target named is G2/mitotic-specific cyclin-B1 (Homo sapiens, UniProt P14635). Briefly: G2/M cell cycle arrest in HeLa, late-stage follow-up, mechanism study for Wee1 degradation inhibitor project, FACS, panel member Cyclin B Degradation (AID 2088).
For assay [14], the target named is T2, Kappa-type opioid receptor (Homo sapiens, UniProt P41145). In kind it is functional.
Another assay deals with Beta-galactosidase (Escherichia coli, UniProt Q8VNN2). In kind it is functional.
In assay [15] the target is T2, Kappa-type opioid receptor. In kind it is functional. This is another data set of the same source.
The target in assay [16] is Voltage-dependent T-type calcium channel subunit alpha-1H (Homo sapiens, UniProt O95180). In kind it is functional.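 Also: channel activity triggered by adding a high calcium stimulation buffer.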
A further assay deals with Tumor necrosis factor (Homo sapiens, UniProt P01375). Briefly: TNFa-triggered NF-kB activation inhibitors, SAR follow-up, cell-based, revised (AID 2337). In kind it is functional.
In assay [17] the target is T3, Nucleotide-binding oligomerization domain-containing protein 1 (Homo sapiens, UniProt Q9Y239).
T3 sequence (Q9Y239 whole entry): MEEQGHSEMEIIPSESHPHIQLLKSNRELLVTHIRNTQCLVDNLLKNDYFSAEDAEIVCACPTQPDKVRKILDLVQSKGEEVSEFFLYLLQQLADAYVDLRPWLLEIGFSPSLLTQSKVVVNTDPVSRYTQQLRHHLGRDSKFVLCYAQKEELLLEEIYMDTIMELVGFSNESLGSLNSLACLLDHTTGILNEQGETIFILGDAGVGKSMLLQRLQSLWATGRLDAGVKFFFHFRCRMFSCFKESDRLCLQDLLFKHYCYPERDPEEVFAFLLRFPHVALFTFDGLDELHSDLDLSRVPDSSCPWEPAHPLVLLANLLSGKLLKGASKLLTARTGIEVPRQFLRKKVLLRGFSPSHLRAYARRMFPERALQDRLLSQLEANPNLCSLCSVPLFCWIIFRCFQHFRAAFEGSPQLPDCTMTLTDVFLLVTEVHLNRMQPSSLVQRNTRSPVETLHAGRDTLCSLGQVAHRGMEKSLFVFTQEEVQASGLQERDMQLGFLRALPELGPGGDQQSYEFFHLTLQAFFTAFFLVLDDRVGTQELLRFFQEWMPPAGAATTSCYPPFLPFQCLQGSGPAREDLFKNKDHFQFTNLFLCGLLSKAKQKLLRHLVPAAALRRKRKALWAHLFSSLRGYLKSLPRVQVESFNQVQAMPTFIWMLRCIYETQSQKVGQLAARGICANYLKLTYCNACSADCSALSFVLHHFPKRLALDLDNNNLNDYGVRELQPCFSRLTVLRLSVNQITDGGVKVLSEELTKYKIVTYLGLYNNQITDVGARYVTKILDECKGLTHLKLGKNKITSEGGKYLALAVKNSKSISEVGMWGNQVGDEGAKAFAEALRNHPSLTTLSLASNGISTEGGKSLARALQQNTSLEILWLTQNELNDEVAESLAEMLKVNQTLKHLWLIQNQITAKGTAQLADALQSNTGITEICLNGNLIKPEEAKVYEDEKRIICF
Briefly: NOD1 signaling inhibitors, SAR follow-up, revised (AID 2333). It is filed as functional.

Assay [18] has as its target Nucleotide-binding oligomerization domain-containing protein 2 (Homo sapiens, UniProt Q9HC29). Briefly: PubChem AID 2334. It is filed as functional.
Assay [19] relates to HEK293. Kind of assay: cells. As to conditions: Homo sapiens.
Another assay has as its system Trypanosoma cruzi. Briefly: growth inhibition of intracellular Trypanosoma cruzi, dose response, cell-based, plate reader, dry powder, set 3 (AID 493197). It is filed as functional.
A short description of assay [20]: inhibitors of Trypanosoma cruzi host-cell infection, confirmation, beta-gal luminescence, NIH3T3 host cells (AID 2630). As to conditions: Mus musculus. It is filed as functional, cell-based.

T2 sequence (P41145 whole entry): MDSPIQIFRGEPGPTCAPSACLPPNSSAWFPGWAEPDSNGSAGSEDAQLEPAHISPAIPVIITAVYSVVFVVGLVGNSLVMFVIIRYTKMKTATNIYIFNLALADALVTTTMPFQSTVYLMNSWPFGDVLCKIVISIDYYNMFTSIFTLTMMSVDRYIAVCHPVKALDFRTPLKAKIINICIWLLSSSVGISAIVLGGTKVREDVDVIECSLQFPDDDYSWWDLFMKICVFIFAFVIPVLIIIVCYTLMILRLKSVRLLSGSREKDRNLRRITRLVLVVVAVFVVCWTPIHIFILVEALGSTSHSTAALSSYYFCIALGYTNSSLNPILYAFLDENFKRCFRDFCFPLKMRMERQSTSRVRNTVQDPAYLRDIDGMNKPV
T1 sequence (P08659 whole entry): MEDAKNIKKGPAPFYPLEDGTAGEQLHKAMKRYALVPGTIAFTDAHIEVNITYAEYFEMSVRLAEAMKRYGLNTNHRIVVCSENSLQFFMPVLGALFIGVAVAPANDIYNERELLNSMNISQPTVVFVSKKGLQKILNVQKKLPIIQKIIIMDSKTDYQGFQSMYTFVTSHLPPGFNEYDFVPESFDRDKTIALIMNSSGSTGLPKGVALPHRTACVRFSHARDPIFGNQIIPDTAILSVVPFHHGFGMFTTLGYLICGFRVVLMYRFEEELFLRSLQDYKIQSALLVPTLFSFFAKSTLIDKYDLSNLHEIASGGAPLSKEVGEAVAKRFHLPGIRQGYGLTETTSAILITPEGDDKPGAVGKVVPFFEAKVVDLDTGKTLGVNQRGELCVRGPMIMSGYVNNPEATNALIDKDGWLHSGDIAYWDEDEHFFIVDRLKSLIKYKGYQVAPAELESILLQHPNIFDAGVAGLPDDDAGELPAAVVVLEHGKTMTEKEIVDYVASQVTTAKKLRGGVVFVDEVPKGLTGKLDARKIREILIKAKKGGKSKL
Chain of Wee1-like protein kinase (P30291 whole entry): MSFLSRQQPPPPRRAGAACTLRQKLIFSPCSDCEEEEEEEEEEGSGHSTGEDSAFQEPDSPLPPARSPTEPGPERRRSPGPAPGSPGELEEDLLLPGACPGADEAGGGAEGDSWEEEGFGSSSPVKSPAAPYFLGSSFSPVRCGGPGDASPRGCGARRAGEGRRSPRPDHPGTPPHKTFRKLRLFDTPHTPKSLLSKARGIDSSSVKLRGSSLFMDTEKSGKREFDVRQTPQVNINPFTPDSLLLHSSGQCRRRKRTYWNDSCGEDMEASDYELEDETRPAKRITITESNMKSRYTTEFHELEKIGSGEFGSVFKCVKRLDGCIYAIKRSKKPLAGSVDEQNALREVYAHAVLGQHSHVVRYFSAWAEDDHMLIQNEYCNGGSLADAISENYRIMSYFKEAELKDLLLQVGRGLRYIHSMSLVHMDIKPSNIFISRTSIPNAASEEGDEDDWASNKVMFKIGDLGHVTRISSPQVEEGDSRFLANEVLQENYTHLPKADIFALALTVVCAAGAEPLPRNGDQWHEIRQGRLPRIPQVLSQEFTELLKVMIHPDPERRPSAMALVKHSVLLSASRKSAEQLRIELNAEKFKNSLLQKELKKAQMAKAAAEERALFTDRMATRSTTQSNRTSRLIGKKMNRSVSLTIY
Chain of Tumor necrosis factor (P01375 whole entry, the tested form may be a part): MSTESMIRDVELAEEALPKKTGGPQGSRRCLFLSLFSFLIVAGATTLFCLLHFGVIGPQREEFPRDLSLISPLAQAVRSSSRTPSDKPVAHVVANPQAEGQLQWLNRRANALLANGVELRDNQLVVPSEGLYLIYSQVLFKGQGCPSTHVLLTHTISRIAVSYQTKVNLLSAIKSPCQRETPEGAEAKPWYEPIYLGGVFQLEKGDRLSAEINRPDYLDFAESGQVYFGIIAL
Chain of G2/mitotic-specific cyclin-B1 (P14635 whole entry): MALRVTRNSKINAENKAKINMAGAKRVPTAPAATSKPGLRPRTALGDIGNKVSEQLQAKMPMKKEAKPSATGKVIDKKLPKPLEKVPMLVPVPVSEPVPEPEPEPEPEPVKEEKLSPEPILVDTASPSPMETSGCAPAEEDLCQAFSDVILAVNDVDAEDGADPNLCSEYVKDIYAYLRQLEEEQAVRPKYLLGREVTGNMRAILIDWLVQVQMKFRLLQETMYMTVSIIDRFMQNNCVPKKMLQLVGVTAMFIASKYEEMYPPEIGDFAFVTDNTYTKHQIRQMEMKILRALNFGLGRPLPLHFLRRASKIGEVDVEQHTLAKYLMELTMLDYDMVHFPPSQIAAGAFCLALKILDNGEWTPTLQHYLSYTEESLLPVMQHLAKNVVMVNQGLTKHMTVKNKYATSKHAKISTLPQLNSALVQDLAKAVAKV
Chain of Nucleotide-binding oligomerization domain-containing protein 2 (Q9HC29 whole entry, the tested form may be a part): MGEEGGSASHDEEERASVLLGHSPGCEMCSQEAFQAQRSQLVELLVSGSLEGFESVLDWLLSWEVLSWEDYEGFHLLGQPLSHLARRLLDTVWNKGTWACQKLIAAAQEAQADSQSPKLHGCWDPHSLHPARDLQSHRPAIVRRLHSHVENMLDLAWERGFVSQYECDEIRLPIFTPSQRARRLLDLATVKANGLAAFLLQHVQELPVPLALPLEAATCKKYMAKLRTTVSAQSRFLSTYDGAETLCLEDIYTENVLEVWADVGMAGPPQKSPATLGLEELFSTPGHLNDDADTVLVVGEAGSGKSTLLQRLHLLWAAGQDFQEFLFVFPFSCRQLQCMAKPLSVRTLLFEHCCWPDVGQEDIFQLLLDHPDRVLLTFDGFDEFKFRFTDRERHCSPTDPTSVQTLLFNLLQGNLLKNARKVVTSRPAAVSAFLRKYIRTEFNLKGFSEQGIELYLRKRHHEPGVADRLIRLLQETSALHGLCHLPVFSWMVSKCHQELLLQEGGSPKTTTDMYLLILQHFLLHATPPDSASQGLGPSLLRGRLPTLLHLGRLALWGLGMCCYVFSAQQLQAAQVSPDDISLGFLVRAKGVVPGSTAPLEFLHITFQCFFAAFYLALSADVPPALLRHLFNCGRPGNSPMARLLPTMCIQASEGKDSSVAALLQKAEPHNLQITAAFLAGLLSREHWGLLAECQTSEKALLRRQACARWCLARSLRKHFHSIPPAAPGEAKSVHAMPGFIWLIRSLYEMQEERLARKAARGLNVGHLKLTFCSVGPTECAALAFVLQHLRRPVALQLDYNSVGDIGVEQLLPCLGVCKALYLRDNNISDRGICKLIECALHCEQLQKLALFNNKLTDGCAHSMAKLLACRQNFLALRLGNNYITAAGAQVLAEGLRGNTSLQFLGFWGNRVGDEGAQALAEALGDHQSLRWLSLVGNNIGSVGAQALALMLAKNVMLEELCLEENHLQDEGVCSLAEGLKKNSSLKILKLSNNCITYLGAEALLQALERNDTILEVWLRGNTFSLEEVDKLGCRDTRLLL
Chain of Protein Tat (P04608 whole entry): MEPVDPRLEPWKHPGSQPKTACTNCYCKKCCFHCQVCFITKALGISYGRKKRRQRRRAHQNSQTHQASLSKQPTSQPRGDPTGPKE
Chain of Beta-galactosidase (Q8VNN2 whole entry): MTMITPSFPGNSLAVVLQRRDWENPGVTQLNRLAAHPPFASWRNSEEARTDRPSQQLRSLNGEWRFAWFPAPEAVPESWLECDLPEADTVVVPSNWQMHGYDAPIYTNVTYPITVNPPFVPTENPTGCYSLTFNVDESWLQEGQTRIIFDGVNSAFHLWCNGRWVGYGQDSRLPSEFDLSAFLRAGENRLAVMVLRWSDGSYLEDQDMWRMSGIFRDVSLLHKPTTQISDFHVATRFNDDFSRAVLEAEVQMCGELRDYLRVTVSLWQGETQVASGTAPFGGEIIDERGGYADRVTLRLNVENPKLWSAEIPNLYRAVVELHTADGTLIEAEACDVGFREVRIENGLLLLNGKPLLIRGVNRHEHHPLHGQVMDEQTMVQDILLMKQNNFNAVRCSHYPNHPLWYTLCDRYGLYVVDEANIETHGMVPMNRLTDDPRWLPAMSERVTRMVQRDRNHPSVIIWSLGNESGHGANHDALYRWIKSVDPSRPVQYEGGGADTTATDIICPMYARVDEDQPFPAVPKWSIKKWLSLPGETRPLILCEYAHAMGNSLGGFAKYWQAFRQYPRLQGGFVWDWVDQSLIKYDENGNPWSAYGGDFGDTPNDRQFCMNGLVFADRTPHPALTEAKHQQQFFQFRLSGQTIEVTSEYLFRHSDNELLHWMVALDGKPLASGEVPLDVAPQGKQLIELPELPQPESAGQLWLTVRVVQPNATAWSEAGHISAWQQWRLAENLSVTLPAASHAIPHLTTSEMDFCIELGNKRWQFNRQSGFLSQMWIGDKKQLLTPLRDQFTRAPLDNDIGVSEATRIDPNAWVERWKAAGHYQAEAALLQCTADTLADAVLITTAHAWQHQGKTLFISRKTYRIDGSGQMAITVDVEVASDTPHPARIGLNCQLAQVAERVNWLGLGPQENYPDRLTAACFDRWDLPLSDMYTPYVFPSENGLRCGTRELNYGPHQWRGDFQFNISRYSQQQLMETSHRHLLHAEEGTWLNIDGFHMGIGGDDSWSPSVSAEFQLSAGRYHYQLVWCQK
Chain of Glyceraldehyde-3-phosphate dehydrogenase (P04406 whole entry): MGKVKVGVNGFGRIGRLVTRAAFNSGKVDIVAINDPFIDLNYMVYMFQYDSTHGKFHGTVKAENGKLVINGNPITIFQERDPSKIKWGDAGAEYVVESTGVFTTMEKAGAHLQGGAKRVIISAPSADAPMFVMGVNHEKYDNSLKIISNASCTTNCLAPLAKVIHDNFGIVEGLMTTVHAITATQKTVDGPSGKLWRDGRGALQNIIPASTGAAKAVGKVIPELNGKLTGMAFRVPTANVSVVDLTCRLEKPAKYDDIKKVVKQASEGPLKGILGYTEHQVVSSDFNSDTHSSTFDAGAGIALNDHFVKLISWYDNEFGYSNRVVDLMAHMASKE

One may read the EC50 as the concentration at which the effect is half-maximal. As a reminder, the IC50 is the concentration needed to halve the response being measured. As a reminder, the AC50 is the concentration giving half of the maximal activity seen. As for `Cc1cc(C(=O)CN2C(=O)c3ccccc3S2(=O)=O)c(C)n1CC1CCCO1` (stereo unspecified), the EC50 in assay [1] is 1.17 µM (active); with HEK293 [2] it was 0.456 µM (active); in [3] it was > 8 µM (not active); with HEK293 [5], > 8 µM (not active); with HT-1080 it was > 50 µM (not active); with HEK293 [7], 8.14 µM (inactive). Also, in the assay on HEK293 [8], the half-maximal effective concentration (EC50) is reported as 6.87 µM (not active). Also, the IC50 in [4] was > 100 µM (not active); in [6] it was > 39.8 µM (not active); at Protein Tat, > 100 µM (active). The AC50 in assay [9] was 0.287 µM (active); in [10], 1.35 µM (active); in [11], 0.407 µM (active); in [12], 0.445 µM (active).

For the compound `COc1ccc(C(=O)Nc2cc(C)nn2-c2nc(C)cc(O)n2)cc1`, the EC50 (on Wee1-like protein kinase; in assay [13]) was > 49.7 µM (inactive) throughout.

Take `O=C(C1CCCN(S(=O)(=O)Cc2ccccc2)C1)N1CCC(Cc2ccccc2)CC1` (stereo unspecified): the IC50 in assay [14] is > 31.5 µM (inactive); in assay [15], over 32 µM. For the same compound, the values for the EC50 (on Beta-galactosidase; in assay [16]) were > 31.5 µM (inactive) and 4.73 µM (active), respectively.

In the case of `Cc1cc(C(=O)NC2CCCc3c2cnn3-c2ccccc2F)n(Cc2ccc(F)cc2)n1` (stereo unspecified), the IC50 (at Tumor necrosis factor; in [17]; in [18]; with HEK293 [19]) was > 20 µM (inactive) in each case.

On to `CCN(CC)C(=O)C1CCCN(Cc2cccc(Cl)c2)C1` (stereo unspecified), for which the AC50 in the assay with Trypanosoma cruzi is 9.91 µM (active). Moreover, the EC50 in assay [20] was 1.33 µM (active).
